This note sets out measurements from patent US20150083146A1, “PERSONAL VAPORIZER LIQUID FOR E[…]-SOLUBLE COMPOUNDS AND RESINS” (Verso PV, LLC, priority 2013, published 2015).

Structures can show the parent of a compound that is named as a salt.

Data set [1] in a line: Emulsion stability (visual separation test; storage, sunlight, temperature). The class given is physicochemical. Particulars: after mixing with heat and agitation; initial observation. The text has this: In some embodiments of the present invention, a stable emulsion containing oil-soluble compounds and/or resins in a liquid base is provided. The stable emulsion may be stored in a container suitable for delivery to a consumer. The stable emulsion may be provided in a vial, cartridge or other container. Preferably the container is air-tight. The stability of the emulsion may be measured or quantified by no visible separation after 30 days.
In this example, a series of liquid compositions were prepared and evaluated for their emulsion stability. Varying compositions were tested that utilized different lipid solubilizers (8 in total). The liquid base in these compositions was propylene glycol. Test samples (liquid compositions including cannabis extract) were subjected to a range of conditions: temperature, sunlight, extended storage, and varied ingredient concentration. Various types of cannabis extract were also tested. For each test sample, observations were noted about the color, viscosity, general visual appearance of each sample, and any changes seen over time.
Materials and Methods: Testing was performed in 20 ml glass scintillation vials. Mixing of the liquid base and lipid solubilizer was done entirely in borosilicate glassware, and ingredients were measured by mass using an AND EJ-610 balance. Samples were heated using a Scilogex MS7-H55O digitally controlled hot plate. Cannabis extract was produced using an Apeks closed-system solvent extractor running instrument grade propane. […]
Formula preparation: Formulas using lipid solubilizers were prepared in three concentrations: 0.1%, 0.5% and 1.0% by mass, in a solvent base of propylene glycol. […] Stock solutions were made of each of the eight lipid solubilizers at each of the three concentrations, producing a total of 24 different formulas at a quantity of approximately 500 ml each. […] After cooling the formula was ready for use. […]
Test Sample preparation: For each sample, the appropriate quantity of cannabis extract and liquid formula were added to a vial. […]

Data set [2] can be described thus: Viscosity rating of liquid compositions (cannabis extract emulsions in propylene glycol formulas). In kind it is physicochemical. Particulars: cannabis extract emulsion in propylene glycol. How it is done:
The liquid composition comprising the oil-soluble compounds or resin should have a density and viscosity suitable for use in a personal vaporizer. […] For example, a liquid composition having a […] of about 100 cps, alternatively about 75 cps or less, alternatively about 50 cps or less, alternatively about 42 cps (the viscosity of propylene glycol) or more. The foregoing values can be combined to form a range. Viscosity values are determined at 25° C. using standard equipment for measuring viscosity of liquids.
Test Sample preparation: For each sample, the appropriate quantity of cannabis extract and liquid formula were added to a vial. The vial was placed on a hot plate at 85° C. until the extract melted. The vial was gently shaken to disperse the extract. Each of the formula recipes were tested with five concentrations of extract: 5%, 10%, 20%, 33%, and 50%, by mass. For example: to produce a 10% extract sample we placed 9.00 grams of one of the stock oil emulsifier formulas, and 1.00 grams of one of cannabis extracts in a 20 ml scintillation vial and applied heat. The components remained separate until heat and agitation are applied.
The viscosity of each sample is rated, in which “1” indicates lower viscosity, “2” indicates moderate viscosity, and “3” indicates higher viscosity.

Take `CCCCCCCCCCCC(=O)OCC(O)CO` (centres unmarked) [Monolaurin, Glyceryl Monolaurate]: in data set [1], the “formation of a stable emulsion” value was “effective and flavorless emulsifier”.

For the compound `CCOC(=O)CC(O)(CC(=O)OCC)C(=O)OCC` [triethyl citrate, Triethyl Citrate], the “formation of a stable emulsion” value in data set [1] is “appeared to perform adequately”.

As to `CC(=O)OCC(COC(C)=O)OC(C)=O` [triacetin, Triacetin], in data set [1], the “formation of a stable emulsion” value was “appeared to perform adequately”.

As for `CCCCCCCC(=O)OCC(O)CO` (centres unmarked) [MCM C8, Glyceryl Caprylate], the “viscosity (in words)” value in data set [2] is “least viscosity”.

Consider Propylene Glycol Monolaurate [PG-12], for which the “viscosity (in words)” value in data set [2] is given as “most viscous”.
